# Laboratory results taken from patent publication US12428394B2, “2,4-disubstituted pyrimidine derivative, preparation method therefor and use thereof” (CHENGDU ZENITAR BIOMEDICAL TECHNOLOGY CO., LTD., priority 2019, dated 2025).
# Read-outs that look alike come from different tables or passages of the source.
# Key:
# [1] = biological target: T1, FLT3 (Homo sapiens, UniProt P36888); assay: In vitro kinase activity experiment, FLT3; format: biochemical; details: inhibition rate of enzyme at 500 nM, measured by Eurofins; for inhibition at 0.5 µM: 40 min, read-out: Kinase activity @ 500 nM (%) FLT3
# T1 construct: purchased Eurofins
# T1 sequence (P36888 27-993): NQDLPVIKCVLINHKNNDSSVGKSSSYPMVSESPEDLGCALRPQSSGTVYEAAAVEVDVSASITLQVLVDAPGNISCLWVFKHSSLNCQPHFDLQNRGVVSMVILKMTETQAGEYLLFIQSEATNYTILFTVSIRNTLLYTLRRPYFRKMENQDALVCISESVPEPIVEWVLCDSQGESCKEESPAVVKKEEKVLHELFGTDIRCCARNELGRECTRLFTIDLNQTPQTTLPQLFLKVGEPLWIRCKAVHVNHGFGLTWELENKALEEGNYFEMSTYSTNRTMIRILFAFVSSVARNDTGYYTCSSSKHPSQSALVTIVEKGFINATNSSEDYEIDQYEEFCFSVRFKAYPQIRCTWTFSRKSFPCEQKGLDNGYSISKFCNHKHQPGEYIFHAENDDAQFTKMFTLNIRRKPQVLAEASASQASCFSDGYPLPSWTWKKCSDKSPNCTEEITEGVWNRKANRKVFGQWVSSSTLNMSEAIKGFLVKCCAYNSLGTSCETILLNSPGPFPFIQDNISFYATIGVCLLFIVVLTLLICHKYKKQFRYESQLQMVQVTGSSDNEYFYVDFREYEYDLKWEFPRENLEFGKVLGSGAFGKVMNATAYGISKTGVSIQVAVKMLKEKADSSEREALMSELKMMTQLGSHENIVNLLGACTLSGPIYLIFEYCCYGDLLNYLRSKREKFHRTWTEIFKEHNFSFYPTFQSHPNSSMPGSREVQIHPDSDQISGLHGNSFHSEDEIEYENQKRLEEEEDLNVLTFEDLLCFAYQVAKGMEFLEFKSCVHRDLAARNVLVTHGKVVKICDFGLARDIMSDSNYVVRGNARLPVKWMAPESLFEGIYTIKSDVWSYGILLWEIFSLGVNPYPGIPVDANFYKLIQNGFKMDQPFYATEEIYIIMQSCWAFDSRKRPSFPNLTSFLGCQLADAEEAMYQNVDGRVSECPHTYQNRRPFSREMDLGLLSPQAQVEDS
# Procedure, shortened: (§1)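 Radiometric filter-binding assay: kinase, its substrate and compound in 8 mM MOPS pH 7.0, 0.2 mM EDTA, 10 mM MnCl2, with 10 mM magnesium acetate and γ33P-ATP; MgATP started the reaction, 40 min at room temperature. Stopped with 3% phosphate, spotted on Filtermat A, washed, scintillation counted.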
# [2] = tested on: SET-2 cells (JAK2 V617F); assay: Inhibition of cell proliferation by MTT experiment, SET-2; format: cell-based; details: MTT, 72 h, read-out: IC50 value on cell proliferation inhibition, SET-2 (V617F)
# Procedure, shortened: (§2)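 MTT assay in MV4-11, MOLM-13 (FLT3-ITD) and SET-2 (JAK2 V617F) cells at 10,000–15,000 cells/well in IMDM with 10% FBS. Cells are exposed to compound for 72 h at 37 °C, then to MTT for 1–3 h. IC50 is fitted from inhibition rates across concentrations.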
# [3] = biological target: T2, JAK2 (Homo sapiens, UniProt O60674); assay: In vitro kinase activity experiment, JAK2; format: biochemical; details: inhibition rate of enzyme at 500 nM; measured by Eurofins
# T2 construct: purchased Eurofins
# T2 sequence (O60674 whole entry): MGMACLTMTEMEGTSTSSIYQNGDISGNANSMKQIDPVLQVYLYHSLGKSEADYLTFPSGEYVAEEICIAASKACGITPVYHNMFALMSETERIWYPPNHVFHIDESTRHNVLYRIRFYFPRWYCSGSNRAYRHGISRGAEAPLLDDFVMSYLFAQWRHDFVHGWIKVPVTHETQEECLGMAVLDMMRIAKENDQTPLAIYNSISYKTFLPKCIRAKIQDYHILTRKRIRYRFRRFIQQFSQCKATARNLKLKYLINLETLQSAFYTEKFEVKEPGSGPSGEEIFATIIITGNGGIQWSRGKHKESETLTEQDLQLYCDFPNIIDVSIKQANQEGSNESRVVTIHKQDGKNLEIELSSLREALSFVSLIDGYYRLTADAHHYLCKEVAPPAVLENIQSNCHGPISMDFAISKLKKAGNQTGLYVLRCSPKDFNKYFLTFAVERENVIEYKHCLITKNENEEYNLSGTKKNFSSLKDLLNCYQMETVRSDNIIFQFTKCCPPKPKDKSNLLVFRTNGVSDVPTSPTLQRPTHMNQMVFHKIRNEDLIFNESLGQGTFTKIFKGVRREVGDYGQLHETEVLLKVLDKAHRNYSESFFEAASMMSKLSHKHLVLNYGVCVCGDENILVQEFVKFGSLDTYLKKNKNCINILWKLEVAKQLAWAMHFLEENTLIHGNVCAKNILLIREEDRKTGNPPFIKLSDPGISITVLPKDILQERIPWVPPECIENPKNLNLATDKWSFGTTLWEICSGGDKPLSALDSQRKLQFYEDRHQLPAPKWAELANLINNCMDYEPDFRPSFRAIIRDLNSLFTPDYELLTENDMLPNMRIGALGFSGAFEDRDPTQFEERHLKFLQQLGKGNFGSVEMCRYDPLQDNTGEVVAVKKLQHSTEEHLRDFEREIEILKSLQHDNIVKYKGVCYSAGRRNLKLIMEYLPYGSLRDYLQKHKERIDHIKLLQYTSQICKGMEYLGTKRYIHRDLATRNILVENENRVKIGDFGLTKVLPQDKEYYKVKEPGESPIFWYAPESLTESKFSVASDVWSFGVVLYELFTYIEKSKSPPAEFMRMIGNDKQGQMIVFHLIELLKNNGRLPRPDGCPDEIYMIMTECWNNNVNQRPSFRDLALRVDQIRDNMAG
# Procedure, shortened: as §1
# [4] = tested on: MOLM-13 cells (FLT3-ITD-/+); assay: Inhibition of cell proliferation by MTT experiment, MOLM-13; format: cell-based, human; details: MTT, 72 h, read-out: IC50 value on cell proliferation inhibition, MOLM-13 FLT3-ITD-/+
# Procedure, shortened: as §2
# [5] = tested on: MV4-11 cells (FLT3-ITD+/+); assay: Inhibition of cell proliferation by MTT experiment, MV4-11; format: cell-based, human; details: MTT, 72 h, read-out: IC50 value on cell proliferation inhibition, MV4-11 FLT3-ITD+/+
# Procedure, shortened: as §2
SMILES,inhibition at 0.5 µM [1],Kinase activity @ 500 nM (%) JAK2 [3],"IC50 ([4]; Homo sapiens, MOLM-13)","IC50 ([5]; Homo sapiens, MV4-11)","IC50 ([2]; Homo sapiens, SET-2)",Kinase activity @ 500 nM (%) FLT3 [1],IC50 [2],IC50 [4],IC50 [5]
"CCN(CCN1CCOCC1)C1CCN(c2ccc(Nc3ncc(C)c(-c4cnn(C(C)C)c4)n3)cc2F)CC1 [CLJ-59, N-(3-fluoro-4-(4-(ethyl(morpholinoethyl)amino)piperidine-1-yl)phenyl)-4-(1-isopropyl-1H-pyrazole-4-yl)-5-methylpyrimidine-2-amine]",97%,98%,100 to 1000 nM,1 to 10 nM,100 to 1000 nM,–,–,–,–
"CCCN(CCN1CCOCC1)C1CCN(c2ccc(Nc3ncc(C)c(-c4cnn(C(C)C)c4)n3)cc2F)CC1 [CLJ-60, N-(3-fluoro-4-(4-(propyl(morpholinoethyl)amino)piperidine-1-yl)phenyl)-4-(1-isopropyl-1H-pyrazole-4-yl)-5-methylpyrimidine-2-amine]",97%,100%,10 to 100 nM,1 to 10 nM,100 to 1000 nM,–,–,–,–
"Cc1cnc(Nc2ccc(N3CCC(CN(C)CCN4CCOCC4)CC3)c(F)c2)nc1-c1cnn(C(C)C)c1 [CLJ-61, N-(3-fluoro-4-(4-(methyl(morpholinoethyl)aminomethyl)piperidine-1-yl)phenyl)-4-(1-isopropyl-1H-pyrazole-4-yl)-5-methylpyrimidine-2-amine]",98%,99%,10 to 100 nM,1 to 10 nM,100 to 1000 nM,–,–,–,–
"Cc1cnc(Nc2ccc(N3CCC[C@@H](N(C)C(=O)CCC#N)C3)c(F)c2)nc1-c1cnn(C(C)C)c1 [CLJ-65, (R)-3-cyano-N-(1-(2-fluoro-4-((4-(1-isopropyl-1H-pyrazole-4-yl)-5-methylpyrimidine-2-yl)amino)phenyl)piperidine-3-yl)-N-methylpropionamide]",89%,90%,10 to 100 nM,10 to 100 nM,100 to 1000 nM,–,–,–,–
"Cc1cnc(Nc2ccc(N3CCC4(CC3)CNC4)c(F)c2)nc1-c1cnn(C(C)C)c1 [CLJ-66, N-(3-fluoro-4-(2,7-diazaspiro[3.5]nonane-7-yl)phenyl)-4-(1-isopropyl-1H-pyrazole-4-yl)-5-methylpyrimidine-2-amine]",94%,93%,100 to 1000 nM,10 to 100 nM,100 to 1000 nM,–,–,–,–
"Cc1cnc(Nc2ccc(N3CCC4(CC3)CN(CCO)C4)c(F)c2)nc1-c1cnn(C(C)C)c1 [CLJ-67, N-(3-fluoro-4-(2,7-diazaspiro[3.5]nonane-2-hydroxyethyl-7-yl)phenyl)-4-(1-isopropyl-1H-pyrazole-4-yl)-5-methylpyrimidine-2-amine]",–,96%,–,–,–,98%,100 to 1000 nM,100 to 1000 nM,10 to 100 nM
"CCCC(O)CN1CC2(CCN(c3ccc(Nc4ncc(C)c(-c5cnn(C(C)C)c5)n4)cc3F)CC2)C1 (stereo not shown) [CLJ-70, N-(3-fluoro-4-(2,7-diazaspiro [3.5]nonane-2-hydroxypentyl-7-yl)phenyl)-4-(1-isopropyl-1H-pyrazol-4-yl)-5-methylpyrimidine-2-amine]",–,90%,–,–,–,91%,100 to 1000 nM,10 to 100 nM,10 to 100 nM
"CCN1CC2(CCN(c3ccc(Nc4ncc(C)c(-c5cnn(C(C)C)c5)n4)cc3F)CC2)C1 [CLJ-71, N-(3-fluoro-4-(2,7-diazaspiro [3.5]nonane-2-ethyl-7-yl)phenyl)-4-(1-isopropyl-1H-pyrazole-4-yl)-5-methylpyrimidine-2-amine]",93%,91%,10 to 100 nM,1 to 10 nM,100 to 1000 nM,–,–,–,–
"CCCN1CC2(CCN(c3ccc(Nc4ncc(C)c(-c5cnn(C(C)C)c5)n4)cc3F)CC2)C1 [CLJ-72, N-(3-fluoro-4-(2,7-diazaspiro [3.5]nonane-2-propyl-7-yl)phenyl)-4-(1-isopropyl-1H-pyrazole-4-yl)-5-methylpyrimidine-2-amine]",92%,92%,10 to 100 nM,10 to 100 nM,100 to 1000 nM,–,–,–,–

# Now from value to compound, other results behind:
inhibition at 0.5 µM [1],Kinase activity @ 500 nM (%) JAK2 [3],"IC50 ([4]; Homo sapiens, MOLM-13)","IC50 ([5]; Homo sapiens, MV4-11)",SMILES,"IC50 ([2]; Homo sapiens, SET-2)",Kinase activity @ 500 nM (%) FLT3 [1],IC50 [2],IC50 [4],IC50 [5]
97%,91%,100 to 1000 nM,100 to 1000 nM,"CCCCN1CC2(CCN(c3ccc(Nc4ncc(C)c(-c5cnn(C(C)C)c5)n4)cc3F)CC2)C1 [CLJ-73, N-(3-fluoro-4-(2,7-diazaspiro [3.5]nonane-2-butyl-7-yl)phenyl)-4-(1-isopropyl-1H-pyrazole-4-yl)-5-methylpyrimidine-2-amine]",100 to 1000 nM,–,–,–,–
97%,98%,10 to 100 nM,10 to 100 nM,"CCCCCCN1CC2(CCN(c3ccc(Nc4ncc(C)c(-c5cnn(C(C)C)c5)n4)cc3F)CC2)C1 [CLJ-74, N-(3-fluoro-4-(2,7-diazaspiro [3.5]nonane-2-hexyl-7-yl)phenyl)-4-(1-isopropyl-1H-pyrazole-4-yl)-5-methylpyrimidine-2-amine]",10 to 100 nM,–,–,–,–
99%,96%,1 to 10 nM,1 to 10 nM,"Cc1cnc(Nc2ccc(N3CCC4(CC3)CN(C(C)C)C4)c(F)c2)nc1-c1cnn(C(C)C)c1 [CLJ-75, N-(3-fluoro-4-(2,7-diazaspiro [3.5]nonane-2-isopropyl-7-yl)phenyl)-4-(1-isopropyl-1H-pyrazole-4-yl)-5-methylpyrimidine-2-amine]",10 to 100 nM,–,–,–,–
67%,59%,100 to 1000 nM,100 to 1000 nM,"Cc1cnc(Nc2ccc(N3CCC4(CC3)CN(C3CCCC3)C4)c(F)c2)nc1-c1cnn(C(C)C)c1 [CLJ-76, N-(3-fluoro-4-(2,7-diazaspiro [3.5]nonane-2-cyclopentyl-7-yl)phenyl)-4-(1-isopropyl-1H-pyrazole-4-yl)-5-methylpyrimidine-2-amine]",100 to 1000 nM,–,–,–,–
55%,54%,100 to 1000 nM,100 to 1000 nM,"C=CC(=O)CCN1CC2(CCN(c3ccc(Nc4ncc(C)c(-c5cnn(C(C)C)c5)n4)cc3F)CC2)C1 [CLJ-77, 1-(7-(2-fluoro-4-((4-(1-isopropyl-1H-pyrazole-4-yl)-5-methylpyrimidine-2-yl)-amino)-phenyl)-2,7-diazaspiro [3.5]nonane-2-yl)-4-pentenamide]",100 to 1000 nM,–,–,–,–
